The record followed here is patent EP1724268A1, “COMPOUND HAVING TGF-BETA INHIBITORY ACTIVITY AND PHARMACEUTICAL COMPOSITION CONTAINING SAME” (KIRIN BEER KABUSHIKI KAISHA, priority 2004, dated 2005).

Like-named read-outs stand apart in the source and are kept apart here.

In test [1] the test system is TGFβ signal. In words: TGFβ signal inhibitory activity, (SBE)4-Luc reporter in A549 cells (Test Examples 1A and 1B). In kind it is cell-based, human. Conditions: Homo sapiens, A549, read-out: TGFβ inhibition rate, %. The procedure, abridged: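 Compounds at 3 µM and 10 µM (some 1 µM) were added with 2 ng/ml TGFβ-1 to A549 cells stably expressing an SBE-driven luciferase, then cultured 4 hr. Chemiluminescent luciferase signal gave % inhibition versus TGFβ-alone and no-TGFβ controls.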

In test [2] the test system is A549 cells. In words: Cell growth inhibitory activity using A549 cells (Test Example 6). In kind it is cell-based, Human. Conditions: for inhibition at 30 µM: Homo sapiens, A549, compound 30 µM, 5% serum, 40 hr, counting kit-8, read-out: Cell growth inhibition rate (%); for inhibitory activity against cell growth or BMP4 signals: as compared with Example 261 or Example 269 described in WO 03/00660. As to the method: Human lung cancer epithelial cells (A549) (available from ATCC) were suspended to a concentration of 3 × 10^4/ml in a DMEM/F12 medium containing 10%FCS, and the suspension was inoculated in 100 µl portions in wells of a 96-well plate. On the following day, a stock solution of the test compound which had been adjusted to 10 mM with DMSO was adjusted with a serum-free DMEM/F12 medium to a dose (60 µM) which was twice the evaluation concentration. After removing the medium inoculated in the 96 wells on the previous day, the solution was added in 50 µl portions to the plate. Next, a DMEM/F12 medium containing 10% serum was added in 50 µl portions to the wells, followed by culturing at 37°C for 40 hr. The final concentration of the serum and the concentration of the evaluation compound were 5% and 30 µM, respectively. The compounds according to the present invention synthesized in the working example were used as the test compound. […]
After 40 hr, the culture was removed, and 100 µl of a solution prepared by diluting counting kit-8 (purchased from Dojindo) with a serum-free F12 medium by 10 times was added, followed by culturing at 37°C for 20 to 30 min. After the confirmation of suitable color development, the absorbance at 450 nm was measured with ARVO (purchased from Wallach Bethold Japan). The cell growth inhibition in the test compound added wells were determined by presuming the absorbance value in the test compound-free wells to be 0% and the absorbance value in the cell-free wells to be 100%.

Where [3] appears, read: test compound 3 µM, TGFβ-1 2 ng/ml, 4 hr, Table 1A.
[4] abbreviates: test compound 10 µM, TGFβ-1 2 ng/ml, 4 hr, Table 1A.
Setting [5] is: 3 µM, compounds of Reference Examples (Test Example 1B).
[6] abbreviates: 10 µM, compounds of Reference Examples (Test Example 1B).
Where [7] appears, read: test compound 3 µM, Reference Examples, Table 1B.
The mark [8] stands for this setting: test compound 10 µM, Reference Examples, Table 1B.

As for `CCc1ccc(Oc2ccnc3cc(C(N)=O)c(OC)cc23)c(-c2ccccn2)n1` [Compound 179, 4-(6-Ethyl-[2,2']bipyridinyl-3-yloxy)-6-methoxy-quinoline-7-carboxylic acid amide], in test [1] (setting [3]), the inhibition (in general, the drop in the measured response relative to a control, in per cent) at 3 µM came out at 100%. Further, the inhibition at 10 µM in test [1] (setting [4]) turned out to be 100%. In test [2], the inhibition at 30 µM was -3% and the “inhibitory activity against cell growth or BMP4 signals” value is “reduced inhibitory activity”.

As to `CCc1ccc(Oc2ccnc3ccc(OC(C)=O)cc23)c(-c2ccccn2)n1` [Compound 186, 4-(6-Ethyl-[2,2']bipyridinyl-3-yloxy)-quinolin-6-ylacetate], in test [1] (setting [3]), the inhibition at 3 µM was determined as 100%. Moreover, in test [1] (setting [4]), the inhibition at 10 µM is 100%. Also, the inhibition at 30 µM in test [2] was -2%.

In the case of `Cc1ccc(Oc2ccnc3ccc(OCCO)cc23)c(-c2ccccn2)n1` [Compound 205, 2-[4-(6-Methyl-[2,2']bipyridyl-3-yloxy)-quinolin-6-yloxy]-ethanol], in test [1] (setting [3]), the inhibition at 3 µM is 98%. Moreover, in test [2], the inhibition at 30 µM was found to be 9% and the “inhibitory activity against cell growth or BMP4 signals” value was “reduced inhibitory activity”.

`COc1cc2c(Oc3cc4cccnc4nc3-c3ccccc3)ccnc2cc1C` [Compound 62, 3-(6-Methoxy-7-methyl-quinolin-4-yloxy)-2-phenyl-[1,8]naphthyridine]: the inhibition at 3 µM in test [1] (setting [3]) came to 99%. Besides, the inhibition at 10 µM in test [1] (setting [4]) is 100%.

For the compound `COc1cc2nccc(Oc3cc(C)c(C)cc3-c3ccccn3)c2cc1OC` [Compound r169], the inhibition at 3 µM in test [1] (setting [5]) is 99%. Further, in test [1] (setting [6]), the inhibition at 10 µM was determined as 100%.

Turning to `CCc1ccc(Oc2ccnc3ccc(OCCOC(=O)C(C)(C)C)cc23)c(-c2ncccn2)n1` [Compound 207, 2-[4-(6-Ethyl-2-pyrimidin-2-yl-pyridin-3-yloxy)-quinolin-6-yloxy]-ethyl 2,2-dimethyl-propanate], the inhibition at 3 µM in test [1] (setting [3]) turned out to be 93%.

As for `COc1cc2c(Oc3ccc(C)cc3C(=O)c3ccccc3)ccnc2cc1OCCN1CCNCC1` [Compound r128], in test [1] (setting [7]), the inhibition at 3 µM amounted to 100%. Further, the inhibition at 10 µM in test [1] (setting [8]) is 100%.

`Cc1cc(Oc2ccnc3cc(C(N)=O)ccc23)c(-c2ccccn2)nc1C` [Compound 126, 4-(5,6-Dimethyl-[2,2']bipyridinyl-3-yloxy)-quinoline-7-carboxylic acid amide]: the inhibition at 3 µM in test [1] (setting [3]) was found to be 93%. For the same compound, the inhibition at 10 µM in test [1] (setting [4]) is 100%.

With `COc1cc2nccc(Oc3cc4ccccc4nc3C)c2cc1OCC(O)CO` (centres unmarked) [r417], the inhibition at 3 µM in test [1] (setting [5]) is 98%. Also, the inhibition at 10 µM in test [1] (setting [6]) turned out to be 100%.

With `COc1cc2nccc(Oc3ccc(C)cc3C(=O)c3ccc(O)cc3)c2cc1OC` [r188], in test [1] (setting [5]), the inhibition at 3 µM amounted to 80%. Besides, in test [1] (setting [6]), the inhibition at 10 µM was 100%.

Take `COc1cc2nccc(Oc3cc4ccccc4nc3-c3ccncc3)c2cc1OC` [r289]: the inhibition at 3 µM in test [1] (setting [5]) was determined as 80%. Also, the inhibition at 10 µM in test [1] (setting [6]) is 99%.

With `COc1cc2nccc(Oc3ccc(Cl)nc3)c2cc1OC` [r206], in test [1] (setting [5]), the inhibition at 3 µM came out at 69%. In addition, the inhibition at 10 µM in test [1] (setting [6]) was 94%.

As for `COc1cc2c(Oc3ccc(C)nc3-c3nccs3)ccnc2cc1OCc1ccccc1` [Compound r328], in test [1] (setting [5]), the inhibition at 3 µM turned out to be 100%. The inhibition at 10 µM in test [1] (setting [6]) amounted to 100%.

On to `COc1cc2c(Oc3ccc(C)cc3C(=O)c3ccccc3)ccnc2cc1OCCCCNCCO` [r142], for which the inhibition at 3 µM in test [1] (setting [7]) was 100%. For the same compound, in test [1] (setting [8]), the inhibition at 10 µM stood at 100%.

As for `COc1cc2nccc(Oc3ccc(C)nc3Cc3ccccc3)c2cc1OC` [r214], in test [1] (setting [5]), the inhibition at 3 µM worked out at 99%. The inhibition at 10 µM in test [1] (setting [6]) turned out to be 100%.

Turning to `COc1cc2nccc(Oc3ccc(C)nc3-c3cccc(NC(C)=O)c3)c2cc1OC` [Compound r236], in test [1] (setting [5]), the inhibition at 3 µM worked out at 90%. For the same compound, the inhibition at 10 µM in test [1] (setting [6]) worked out at 100%.

Turning to `COc1cc2nccc(Oc3cc4ccccc4nc3-c3ccccc3)c2cc1OC` [Compound r283, 6,7-Dimethoxy-4-(2-phenyl-quinolin-3-yloxy)-quinoline], in test [1] (setting [5]), the inhibition at 3 µM worked out at 99%. Also, the inhibition at 10 µM in test [1] (setting [6]) came out at 100%.

In the case of `COc1cc2nccc(Oc3ccc(C(=O)c4cccc(C)c4)cc3)c2cc1OC` [r78], the inhibition at 3 µM in test [1] (setting [7]) was 0%. Moreover, in test [1] (setting [8]), the inhibition at 10 µM worked out at 57%.

Take `COc1cc2c(Oc3cc4ccccc4nc3C)ccnc2cc1-c1ccncc1` [r414]: in test [1] (setting [5]), the inhibition at 3 µM came out at 82%. The inhibition at 10 µM in test [1] (setting [6]) turned out to be 100%.

Take `COc1cc2c(Oc3cc4cccnc4nc3-c3ccccc3)ccnc2cc1C(N)=O` [Compound 147, 6-Methoxy-4-(2-phenyl-[1,8]naphthyridin-3-yloxy)-quinoline-7-carboxylic acid amide]: the inhibition at 3 µM in test [1] (setting [3]) amounted to 34%. Also, the inhibition at 10 µM in test [1] (setting [4]) amounted to 77%.

For `COc1cc2nccc(Oc3cc4cnccc4nc3-c3ccccc3)c2cc1OC` [Compound 93, 3-(6,7-Dimethoxy-quinolin-4-yloxy)-2-phenyl-[1,6]naphthyridine], in test [1] (setting [3]), the inhibition at 3 µM turned out to be 97%. Further, the inhibition at 10 µM in test [1] (setting [4]) was 100%.

With `COc1cc2c(Oc3ccc(C)cc3C(=O)c3ccccc3)ccnc2cc1OCCCN1CCC(N2CCCC2)CC1` [Compound r136], in test [1] (setting [7]), the inhibition at 3 µM came out at 90%. In addition, the inhibition at 10 µM in test [1] (setting [8]) came out at 100%.

As to `COc1cc2nccc(Oc3cc4cnccc4nc3C)c2cc1OC` [r311], the inhibition at 3 µM in test [1] (setting [5]) came out at 53%. Besides, in test [1] (setting [6]), the inhibition at 10 µM worked out at 90%.

For the compound `COc1cc2nccc(Oc3cc4cccnc4nc3C)c2cc1OC` [Compound r310], the inhibition at 3 µM in test [1] (setting [5]) was 72%. Moreover, in test [1] (setting [6]), the inhibition at 10 µM is 97%.

For `COc1cc2c(Oc3cc(C)c(C)nc3-c3ccccn3)ccnc2cc1O` [Compound r338], the inhibition at 3 µM in test [1] (setting [5]) stood at 92%. Besides, in test [1] (setting [6]), the inhibition at 10 µM amounted to 100%.

Consider `COc1cc2nccc(Oc3cc4cccnc4nc3C(C)(C)C)c2cc1OC` [r426], for which the inhibition at 3 µM in test [1] (setting [5]) turned out to be 100%.

In the case of `COc1cc2c(Oc3cc(C)c(C)nc3-c3cccc(C)n3)ccnc2cc1OCc1ccccc1` [Compound r442], in test [1] (setting [5]), the inhibition at 3 µM stood at 70%. For the same compound, the inhibition at 10 µM in test [1] (setting [6]) was found to be 100%.

On to `COc1cccc(-c2nc(C)ccc2Oc2ccnc3cc(OC)c(OC)cc23)c1` [Compound r238], for which the inhibition at 3 µM in test [1] (setting [5]) was 92%. Further, the inhibition at 10 µM in test [1] (setting [6]) was found to be 100%.

Consider `COc1cc2nccc(Oc3ccc4c(c3)C(=O)c3ccccc3-4)c2cc1OC` [Compound r19], for which the inhibition at 3 µM in test [1] (setting [7]) was found to be 73%. Also, in test [1] (setting [8]), the inhibition at 10 µM is 95%.

As for `CCc1nc2ncccc2cc1Oc1ccnc2cc(OC)c(F)cc12` [Compound 161, 2-Ethyl-3-(6-fluoro-7-methoxy-qulnolin-4-yloxy)-[1,8]naphthyridine], in test [1] (setting [3]), the inhibition at 3 µM amounted to 68%. Also, the inhibition at 10 µM in test [1] (setting [4]) is 95%.

With `COc1cc2c(Oc3cc(C)c(C)nc3-c3nc(C)c(C)s3)ccnc2cc1OCC(O)CO` (centres unmarked) [Compound r464], in test [1] (setting [5]), the inhibition at 3 µM worked out at 97%. The inhibition at 10 µM in test [1] (setting [6]) turned out to be 100%.

For `COc1cc2c(Oc3cc4cccnc4nc3C)ccnc2cc1OCCN1CCOCC1` [Compound r441], the inhibition at 3 µM in test [1] (setting [5]) was 97%. Moreover, in test [1] (setting [6]), the inhibition at 10 µM came to 100%.

In the case of `COc1cc2c(Oc3ccc(C)nc3-c3nccs3)ccnc2cc1O` [Compound r329], the inhibition at 3 µM in test [1] (setting [5]) came out at 100%. For the same compound, the inhibition at 10 µM in test [1] (setting [6]) was determined as 100%.
